Values quoted from earlier work, collected in patent US20090264421A1 (priority 2007, published 2009).

Columns and labels:
[1] = target: T1, TrxR1 (Homo sapiens, UniProt Q16881); conditions: cited from earlier work
T1 sequence (Q16881 1-499 isoform Q16881-5): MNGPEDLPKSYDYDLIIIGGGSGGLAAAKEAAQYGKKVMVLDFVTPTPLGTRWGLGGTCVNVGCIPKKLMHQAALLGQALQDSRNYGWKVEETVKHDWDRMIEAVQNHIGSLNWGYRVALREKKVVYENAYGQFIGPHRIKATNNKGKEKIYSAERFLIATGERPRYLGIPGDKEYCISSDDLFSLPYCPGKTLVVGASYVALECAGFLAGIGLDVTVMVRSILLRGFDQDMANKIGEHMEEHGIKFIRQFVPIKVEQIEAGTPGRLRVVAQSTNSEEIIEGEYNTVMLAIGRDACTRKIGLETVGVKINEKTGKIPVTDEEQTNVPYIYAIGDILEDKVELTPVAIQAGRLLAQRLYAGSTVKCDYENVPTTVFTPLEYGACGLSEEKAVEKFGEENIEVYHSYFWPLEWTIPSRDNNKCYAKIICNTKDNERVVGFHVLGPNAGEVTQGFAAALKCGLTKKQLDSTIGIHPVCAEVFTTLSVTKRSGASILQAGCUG

[2] = target: T2, glutaredoxin (Homo sapiens, UniProt P35754); conditions: cited from earlier work
T2 sequence (P35754 1-106): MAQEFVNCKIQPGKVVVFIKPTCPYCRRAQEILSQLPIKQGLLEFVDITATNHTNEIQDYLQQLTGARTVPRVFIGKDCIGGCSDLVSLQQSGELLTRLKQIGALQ

**Q.** With COc1c(Cl)cc2c(c1OC)N(C)[C@@H]1N3C(=O)[C@@]4(C)SS[C@@]3(C(=O)N4C)[C@H](O)[C@]21O [sporidesmin] as the compound, how does the TrxR1 inhibition [1] read?
**A.** Its TrxR1 inhibition is “not to significantly inhibit TrxR1”.

**Q.** And the glutaredoxin inhibition [2]?
**A.** The glutaredoxin inhibition was “inhibitor of glutaredoxin”.
